Source: PubChem BioAssay AID602334 (Sanford-Burnham Center for Chemical Genomics, 2012)
pEC50: −log10 of the molar value. “And” between values parts separate entries of the source, which are not always exact repeats. Equal entries are not always repeated. The source made the active and inactive calls. No rule for the calls is given here.

What follows are compounds tested against Neurotensin receptor type 2 (Homo sapiens) (UniProt O95665) (assay: NTR2 agonist activity for selectivity, SAR follow-up, selectivity assay for NTR1 agonist project, imaging, image-based, set 2 (AID 602334)). Settings: NTR2-expressing cells, image-based receptor agonism assay.
Neurotensin receptor type 2 (Homo sapiens), sequence (O95665 whole entry, looked up): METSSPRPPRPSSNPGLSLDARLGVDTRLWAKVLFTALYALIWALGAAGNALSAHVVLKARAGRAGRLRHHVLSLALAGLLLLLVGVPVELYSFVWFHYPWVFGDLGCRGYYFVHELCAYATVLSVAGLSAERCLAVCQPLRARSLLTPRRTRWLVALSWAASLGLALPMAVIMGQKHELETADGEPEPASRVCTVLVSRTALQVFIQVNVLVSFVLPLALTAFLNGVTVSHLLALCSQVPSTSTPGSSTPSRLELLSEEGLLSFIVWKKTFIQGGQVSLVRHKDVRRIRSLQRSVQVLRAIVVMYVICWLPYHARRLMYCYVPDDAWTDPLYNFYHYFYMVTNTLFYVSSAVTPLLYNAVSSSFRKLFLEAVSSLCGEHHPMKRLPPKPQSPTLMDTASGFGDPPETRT
In the case of `COc1cc2nc(C(C)C)nc(N3CCN(c4ccccc4OC)CC3)c2cc1OC`, the EC50 was > 80 µM (inactive).
`Cc1ccc(-c2nnc3c4cc5c(cc4n(Cc4ccccc4)cc2-3)OCO5)cc1C` was tested, and the pEC50 was 5.75.
In the case of `COc1cc2nc(C3CC3)nc(N3CCN(C(=O)c4ccccc4OC)CC3)c2cc1OC`, the EC50 was > 80 µM (inactive).
For `COc1ccc2c(c1)c1nnc(-c3ccc(F)cc3)c-1cn2Cc1ccc(F)cc1`, the EC50 was “inactive”.
With `CCOc1ccc(-c2nnc3c4cc(OC)c(OC)cc4n(Cc4ccccc4)cc2-3)cc1` the EC50 was > 80 µM (inactive).
In the case of `COc1cc2nc(C3CCC3)nc(N3CCN(c4c(C)cccc4C)CC3)c2cc1OC`, the EC50 was > 80 µM (inactive).
`COc1cc2nc(C3CCC3)nc(N3CCN(c4ccccc4OC)CC3)c2cc1OC` was tested, and the EC50 was > 80 µM (inactive).
With `COc1cc2nc(C3CCC3)nc(N3CCN(c4ccccc4[N+](=O)[O-])CC3)c2cc1OC` the EC50 was > 80 µM (inactive).
`CCCc1nc(N2CCN(c3ccccc3OC)CC2)c2cc(OC)c(OC)cc2n1` was tested, and the EC50 was > 80 µM (inactive).
With `CCc1ccc(-c2nnc3c4cc(OC)c(OC)cc4n(Cc4ccc(F)cc4)cc2-3)cc1` the EC50 was “inactive”.
For `COc1cc2nc(C3CCC3)nc(N3CCN(c4ccccc4F)CC3)c2cc1OC`, the EC50 was > 80 µM (inactive).
In the case of `COc1ccc2nc(C3CCC3)nc(N3CCN(c4ccccc4OC)CC3)c2c1`, the EC50 was > 80 µM (inactive).
In the case of `CCOc1ccccc1N1CCN(c2nc(C3CC3)nc3cc(OC)c(OC)cc23)CC1`, the EC50 was > 80 µM (inactive).
With `COc1cccc(OC)c1-c1nc(C(=O)N[C@@H](CC(C)C)C(=O)O)cn1-c1ccnc2cc(Cl)ccc12` the EC50 was > 80 µM (inactive).
With `COc1ccc2c3nnc(-c4ccc(C)cc4)c-3cn(Cc3ccccc3)c2c1` the EC50 was “inactive”.
For `COc1cc2nc(C3CCCC3)nc(N3CCN(c4ccccc4OC)CC3)c2cc1OC`, the EC50 was > 80 µM (inactive).
Compound `COc1ccc(-c2nnc3c4cc(OC)c(OC)cc4n(Cc4ccc(C)cc4)cc2-3)cc1` has a pEC50 of 4.97.
With `COc1cc2c3nnc(-c4ccc(F)cc4)c-3cn(Cc3ccccc3N(C)C)c2cc1OC` the pEC50 was 5.36 and 5.43.
With `CCc1nc(N2CCN(c3ccccc3OC)CC2)c2cc(OC)c(OC)cc2n1` the EC50 was > 80 µM (inactive).
`COc1ccc(Cn2cc3c(-c4ccc(F)cc4)nnc-3c3cc(OC)c(OC)cc32)cc1` showed a pEC50 of 4.83.
`COc1cc2nc(C3CC3)nc(N3CCNCC3)c2cc1OC` was tested, and the EC50 was > 80 µM (inactive).
`COc1cc2c3nnc(-c4ccc(C)cc4)c-3cn(Cc3ccc(F)cc3)c2cc1OC` gave a pEC50 of 5.04.
`COc1cc2nc(C3CC3)nc(N3CCN(C(=O)OC(C)(C)C)CC3)c2cc1OC` was tested, and the EC50 was > 80 µM (inactive).
For `COc1ccccc1-c1cc(C(=O)N[C@@H](CC(C)C)C(=O)O)nn1-c1ccnc2cc(Cl)ccc12`, the EC50 was > 80 µM (inactive).
For `CCOc1ccc(-c2nnc3c4cc(OC)c(OC)cc4n(Cc4ccc(C)cc4)cc2-3)cc1`, the EC50 was > 80 µM (inactive).
In the case of `COc1cc2nc(CCN(C)C)nc(N3CCN(c4ccccc4OC)CC3)c2cc1OC`, the EC50 was > 80 µM (inactive).
For `COc1cccc(OC)c1-c1cc(C(=O)N[C@@H](CC(C)C)C(=O)O)nn1-c1ccnc2cc(Cl)ccc12`, the EC50 was > 80 µM (inactive).
`COc1cc2c3nnc(-c4ccccc4)c-3cn(Cc3ccccc3)c2cc1OC` was tested, and the EC50 was “inactive”.
In the case of `CCOc1ccc(-c2nnc3c4cc(OC)c(OC)cc4n(Cc4ccc(F)cc4)cc2-3)cc1`, the EC50 was > 80 µM (inactive).
With `COc1ccc2c3nnc(-c4ccc(C)cc4)c-3cn(Cc3ccc(C)cc3)c2c1` the EC50 was > 80 µM (inactive).
`Fc1ccc(-c2nnc3c4cc5c(cc4n(Cc4ccccc4)cc2-3)OCO5)cc1` was tested, and the EC50 was > 80 µM (inactive).
In the case of `COc1ccc2nc(C3CC3)nc(N3CCN(c4ccccc4OC)CC3)c2c1`, the EC50 was > 80 µM (inactive).
With `COc1cc2c3nnc(-c4ccc(F)cc4)c-3cn(Cc3ccc(F)cc3)c2cc1OC` the EC50 was “inactive”.
With `COc1cc2c3nnc(-c4ccc(C)c(C)c4)c-3cn(Cc3ccc(F)cc3)c2cc1OC` the EC50 was “inactive”.
In the case of `Fc1ccc(Cn2cc3c(-c4ccc(F)cc4)nnc-3c3cc4c(cc32)OCO4)cc1`, the EC50 was “inactive”.
For `COc1cc2nc(C3CC3)nc(N3CCN(S(=O)(=O)c4ccccc4)CC3)c2cc1OC`, the EC50 was > 80 µM (inactive).
For `COc1cc2c3nnc(-c4ccccc4)c-3cn(Cc3ccc(F)cc3)c2cc1OC`, the EC50 was > 80 µM (inactive).
With `COc1cc2nc(Cc3ccccc3)nc(N3CCN(c4ccccc4OC)CC3)c2cc1OC` the EC50 was > 80 µM (inactive).
Work on `COc1cc2c3nnc(-c4ccc(F)cc4)c-3cn(Cc3ccccc3C)c2cc1OC` yielded a pEC50 of 5.16.
In the case of `COc1cc2nc(C3CC3)nc(N3CCN(C(=O)c4ccccc4)CC3)c2cc1OC`, the EC50 was > 80 µM (inactive).
For `COc1cc2c3nnc(-c4ccc(F)cc4)c-3cn(Cc3cccc(C)c3)c2cc1OC`, the pEC50 was 4.99 and 5.03.
With `COc1ccc(N2CCN(c3nc(C4CCC4)nc4cc(OC)c(OC)cc34)CC2)c(OC)c1` the EC50 was > 80 µM (inactive).
For `COc1ccccc1CN1CCN(c2nc(C3CC3)nc3cc(OC)c(OC)cc23)CC1`, the EC50 was > 80 µM (inactive).
In the case of `Cc1ccc(-c2nnc3c4cc5c(cc4n(Cc4ccc(F)cc4)cc2-3)OCO5)cc1`, the EC50 was “inactive”.
For `COc1cccc(OC)c1-c1nc(C(=O)N[C@@H](CC(C)C)C(=O)O)cn1-c1cccc2ccccc12`, the EC50 was > 80 µM (inactive).
In the case of `C=Cc1nc(N2CCN(c3ccccc3OC)CC2)c2cc(OC)c(OC)cc2n1`, the EC50 was > 80 µM (inactive).
In the case of `COc1cc2nc(C3CCC3)nc(N3CCN(c4ccccc4Cl)CC3)c2cc1OC`, the EC50 was > 80 µM (inactive).
`COc1cc2c3nnc(-c4ccc(F)cc4)c-3cn(Cc3ccncc3)c2cc1OC` was tested, and the EC50 was > 80 µM (inactive).
In the case of `COc1cc2nc(C3CC3)nc(N3CCN(Cc4ccc(C)cc4)CC3)c2cc1OC`, the EC50 was > 80 µM (inactive).
`Cc1ccc(Cn2cc3c(-c4ccc(C)c(C)c4)nnc-3c3cc4c(cc32)OCO4)cc1` was tested, and the EC50 was “inactive”.
`COc1ccc(-c2nnc3c4cc(OC)c(OC)cc4n(Cc4ccccc4)cc2-3)cc1` was tested, and the EC50 was “inactive”.
`COc1cc2c3nnc(-c4ccc(F)cc4)c-3cn(Cc3ccccc3F)c2cc1OC` showed a pEC50 of 5.44.
`COc1ccc2c(c1)c1nnc(-c3ccc(F)cc3)c-1cn2Cc1ccccc1` was tested, and the pEC50 was 4.77.
With `COc1cccc(OC)c1-c1nc(C(=O)N[C@H](CC(C)C)C(=O)O)cn1-c1ccnc2cc(Cl)ccc12` the EC50 was > 80 µM (inactive).
In the case of `COc1cc2nc(C3CCC3)nc(N3CCN(c4ccccn4)CC3)c2cc1OC`, the EC50 was > 80 µM (inactive).
For `COc1cc2nc(C3CCC3)nc(N3CCN(c4ccccc4C)CC3)c2cc1OC`, the EC50 was > 80 µM (inactive).
In the case of `CC(C)C[C@H](NC(=O)c1cn(-c2ccnc3cc(Cl)ccc23)c(-c2c(Cl)cccc2Cl)n1)C(=O)O`, the EC50 was > 80 µM (inactive).
In the case of `COc1cc2nc(CC3CC3)nc(N3CCN(c4ccccc4OC)CC3)c2cc1OC`, the EC50 was > 80 µM (inactive).
`COc1cc2c3nnc(-c4ccc(C)c(C)c4)c-3cn(Cc3ccccc3)c2cc1OC` was tested, and the EC50 was > 80 µM (inactive).
`Cc1cccc(C)c1-c1nc(C(=O)N[C@@H](CC(C)C)C(=O)O)cn1-c1ccnc2cc(Cl)ccc12` was tested, and the EC50 was > 80 µM (inactive).
In the case of `COc1cc2c3nnc(-c4ccc(C)cc4)c-3cn(Cc3ccc(C)cc3)c2cc1OC`, the pEC50 was 4.90.
With `COc1cc2c3nnc(-c4ccc(F)cc4)c-3cn(Cc3ccc(C)cc3)c2cc1OC` the pEC50 was 4.82 and 4.80.
`Fc1ccc(Cn2cc3c(-c4ccc(Cl)cc4)nnc-3c3cc4c(cc32)OCO4)cc1` was tested, and the EC50 was “inactive”.
With `Cc1ccc(Cn2cc3c(-c4ccc(F)cc4)nnc-3c3cc4c(cc32)OCO4)cc1` the EC50 was > 80 µM (inactive).
With `COc1cc2nc(C3CCC3)nc(N3CCN(c4ccccc4)CC3)c2cc1OC` the EC50 was > 80 µM (inactive).
For `COc1cc2c3nnc(-c4ccc(Cl)cc4)c-3cn(Cc3ccc(C)cc3)c2cc1OC`, the EC50 was > 80 µM (inactive).
`COc1cc2c3nnc(-c4ccc(Cl)cc4)c-3cn(Cc3ccc(F)cc3)c2cc1OC` gave a pEC50 of 5.08.
`COc1ccc2c3nnc(-c4ccc(C)cc4)c-3cn(Cc3ccc(F)cc3)c2c1` was tested, and the EC50 was > 80 µM (inactive).
`COc1cc2c3nnc(-c4ccc(F)cc4)c-3cn(Cc3ccccc3)c2cc1OC` was tested, and the pEC50 was 5.03 and 5.14.
`COc1cc2nc(C3CC3)nc(N3CCN(c4ccccc4OC)CC3)c2cc1OC` was tested, and the EC50 was > 80 µM (inactive).
With `COc1cccc(OC)c1-c1cc(C(=O)N[C@@H](CC(C)C)C(=O)OC(C)(C)C)nn1-c1ccnc2cc(Cl)ccc12` the EC50 was > 80 µM (inactive).
For `COc1cc2nc(C3CC3)nc(N3CCN(c4ccccc4Cl)CC3)c2cc1OC`, the EC50 was > 80 µM (inactive).
Compound `COc1cc2c3nnc(-c4ccc(Cl)cc4)c-3cn(Cc3ccccc3)c2cc1OC` has a pEC50 of 5.07.
Compound `COc1cc2c3nnc(-c4ccc(F)cc4)c-3cn(Cc3ccc(Cl)cc3)c2cc1OC` has a pEC50 of 4.80.
`COc1cc2nc(CC(C)C)nc(N3CCN(c4ccccc4OC)CC3)c2cc1OC` was tested, and the EC50 was > 80 µM (inactive).
In the case of `COc1cc2c3nnc(-c4ccc(F)cc4)c-3cn(Cc3ccc(C)cc3C)c2cc1OC`, the pEC50 was 4.96.
For `COc1cccc(OC)c1-c1nc(C(=O)N[C@@H](CC(C)C)C(=O)O)cn1-c1ccnc2ccccc12`, the EC50 was > 80 µM (inactive).
For `COc1cc2nc(CCN3CCN(c4ccccc4OC)CC3)nc(N3CCN(c4ccccc4OC)CC3)c2cc1OC`, the EC50 was > 80 µM (inactive).
